Measurements from US9260417B2, “Therapeutic methods and compositions involving allosteric kinase inhibition” (AMITECH THERAPEUTIC SOLUTIONS, INC., priority 2010, dated 2016).

Tests used:
CDK8 = CDK8 (Homo sapiens (Human), UniProt P49336); experiment: KINOMEscan competitive binding assay; details: 10 uM
[1] = test system: VEGF-C induced lymphangiogenesis; experiment: Lymph node lymphangiogenesis model (VEGF-C Matrigel); type: in vivo, mice; details: 200 μl of 5.25 mg/ml ip twice daily, 7 days
Procedure: (FIG. 12A) Images of local lymph node lymphangiogenesis model between saline and VEGF-C matrigel.
Lymphangiogenesis assays were performed by subcutaneously injecting 350 μl of cold Matrigel containing saline or […] of VEGF-C(R&D Systems, Minneapolis, Minn.) into wild-type C57B1/6 mice. […] After 7 days, lymph nodes were removed, embedded in OCT, frozen and sectioned. Thin sections (5 μm) were fixed in ice cold acetone for five minutes, permeabilized in 0.1% Triton X-100 in phosphate buffered saline (PBS), blocked in 8% normal donkey serum diluted in PBS for 1.5 hours at room temperature and then incubated with 2 μg/ml anti-murine Lyve-1 (RDI-103PA50) in 8% normal donkey serum diluted in saline overnight at 4° C. After extensive washing, slides were incubated with 1 μg/ml cross-absorbed donkey anti-rabbit IgG (H+L) conjugated with Alexa Fluor 488 (Invitrogen). Slides were counterstained with DAPI. Coverslips were mounted with Dako Cytomation fluorescent mounting medium (Dako Corporation, Carpinteria, Calif.). At least five microscopic fields per tissue section/mouse were analyzed for quantification studies.

SN12C-RFP renal cells = experiment: Orthotopic renal cell carcinoma model; type: in vivo, mice; details: 100 mg/kg, po, qd; day 26 (vehicle 132±39 mg)
Excerpt: (FIG. 10A) Real-time fluorescent imaging of SN12C-RFP renal cells orthotopically injected into […] of nu/nu mice. […] Drug treatments were started 7 days after orthotopic injection and tumor growth was visualized every 7 days by whole animal imaging. The images shown are of 4 mice in the vehicle and drug treated groups on day 26. Scale bar=10 mm. (FIG. 10B) At the end of the study, both the left tumor bearing kidney and right kidney were extracted and weighed.
Male Nu/Nu mice were anesthetized with an intraperitoneal injection of 50 mg/kg ketamine and […] medetomidine. A small incision was made along the left flank of the mice and the kidney was exposed. A 27-gauge insulin syringe was used for orthotopic injection of the SN12C-RFP cells. One million tumor cells in 20 μl of a 1:1 PBS:Matrigel mixture were injected into the lower pole of the kidney just below the renal subcapsule. […]
To test the effects of 6 on tumor growth after oral administration, human SN12C renal cells expressing RFP were injected into the kidney capsule of nude mice and tumors were allowed to develop for 7 days. […] Suppression of tumor growth was readily observed in those animals treated with 6 (FIG. 10A). On day 26, the kidneys were excised from these animals and the weight due to tumor was calculated by subtracting the weight of the normal kidney from the weight of the tumor-bearing kidney for each animal.

MYO3A = MYO3A (Homo sapiens (Human), UniProt Q8NEV4); experiment: KINOMEscan competitive binding assay; details: 10 uM
Chain of MYO3A (Q8NEV4 whole entry): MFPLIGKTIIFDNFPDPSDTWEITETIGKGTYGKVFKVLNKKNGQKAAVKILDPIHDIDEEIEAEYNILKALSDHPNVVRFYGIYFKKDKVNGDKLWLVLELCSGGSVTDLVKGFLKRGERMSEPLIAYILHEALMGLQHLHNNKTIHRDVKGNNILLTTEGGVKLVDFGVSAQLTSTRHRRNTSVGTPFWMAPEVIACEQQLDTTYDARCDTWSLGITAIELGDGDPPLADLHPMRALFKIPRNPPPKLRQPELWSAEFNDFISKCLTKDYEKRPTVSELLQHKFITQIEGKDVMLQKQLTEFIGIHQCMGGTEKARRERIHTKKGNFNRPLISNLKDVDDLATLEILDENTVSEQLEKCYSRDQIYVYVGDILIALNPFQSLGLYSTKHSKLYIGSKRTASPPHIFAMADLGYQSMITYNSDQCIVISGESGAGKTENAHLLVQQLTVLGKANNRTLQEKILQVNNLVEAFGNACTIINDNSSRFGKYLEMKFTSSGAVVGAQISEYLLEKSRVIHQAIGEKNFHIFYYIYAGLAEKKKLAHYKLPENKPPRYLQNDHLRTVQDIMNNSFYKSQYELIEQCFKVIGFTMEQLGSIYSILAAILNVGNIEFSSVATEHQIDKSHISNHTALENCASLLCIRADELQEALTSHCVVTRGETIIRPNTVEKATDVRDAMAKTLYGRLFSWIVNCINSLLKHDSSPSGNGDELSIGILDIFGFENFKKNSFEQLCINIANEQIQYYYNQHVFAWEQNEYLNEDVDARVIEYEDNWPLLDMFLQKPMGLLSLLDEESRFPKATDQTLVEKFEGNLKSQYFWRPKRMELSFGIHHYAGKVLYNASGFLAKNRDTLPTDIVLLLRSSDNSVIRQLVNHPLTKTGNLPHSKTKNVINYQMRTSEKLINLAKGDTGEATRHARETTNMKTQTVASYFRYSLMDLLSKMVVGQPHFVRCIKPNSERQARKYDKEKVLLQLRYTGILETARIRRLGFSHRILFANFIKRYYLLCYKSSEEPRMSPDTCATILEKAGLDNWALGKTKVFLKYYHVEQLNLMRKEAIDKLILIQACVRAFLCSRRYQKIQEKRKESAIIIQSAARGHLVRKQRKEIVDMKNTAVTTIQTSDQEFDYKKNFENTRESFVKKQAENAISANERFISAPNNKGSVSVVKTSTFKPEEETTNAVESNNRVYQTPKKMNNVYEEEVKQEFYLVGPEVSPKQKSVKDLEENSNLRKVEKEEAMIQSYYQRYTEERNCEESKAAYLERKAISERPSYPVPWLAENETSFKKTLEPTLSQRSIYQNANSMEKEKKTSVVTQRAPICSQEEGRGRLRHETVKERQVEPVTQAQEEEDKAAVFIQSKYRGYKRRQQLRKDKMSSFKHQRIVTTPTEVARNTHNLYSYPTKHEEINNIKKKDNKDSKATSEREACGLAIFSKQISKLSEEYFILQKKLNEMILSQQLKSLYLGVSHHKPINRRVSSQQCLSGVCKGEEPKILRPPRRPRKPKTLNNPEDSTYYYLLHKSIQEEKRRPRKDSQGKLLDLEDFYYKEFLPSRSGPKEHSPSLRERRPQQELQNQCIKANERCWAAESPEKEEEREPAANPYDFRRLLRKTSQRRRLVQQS

SRPK2 = SRPK2 (Homo sapiens (Human), UniProt P78362); experiment: KINOMEscan competitive binding assay; details: 10 uM
Chain of SRPK2 (P78362 whole entry): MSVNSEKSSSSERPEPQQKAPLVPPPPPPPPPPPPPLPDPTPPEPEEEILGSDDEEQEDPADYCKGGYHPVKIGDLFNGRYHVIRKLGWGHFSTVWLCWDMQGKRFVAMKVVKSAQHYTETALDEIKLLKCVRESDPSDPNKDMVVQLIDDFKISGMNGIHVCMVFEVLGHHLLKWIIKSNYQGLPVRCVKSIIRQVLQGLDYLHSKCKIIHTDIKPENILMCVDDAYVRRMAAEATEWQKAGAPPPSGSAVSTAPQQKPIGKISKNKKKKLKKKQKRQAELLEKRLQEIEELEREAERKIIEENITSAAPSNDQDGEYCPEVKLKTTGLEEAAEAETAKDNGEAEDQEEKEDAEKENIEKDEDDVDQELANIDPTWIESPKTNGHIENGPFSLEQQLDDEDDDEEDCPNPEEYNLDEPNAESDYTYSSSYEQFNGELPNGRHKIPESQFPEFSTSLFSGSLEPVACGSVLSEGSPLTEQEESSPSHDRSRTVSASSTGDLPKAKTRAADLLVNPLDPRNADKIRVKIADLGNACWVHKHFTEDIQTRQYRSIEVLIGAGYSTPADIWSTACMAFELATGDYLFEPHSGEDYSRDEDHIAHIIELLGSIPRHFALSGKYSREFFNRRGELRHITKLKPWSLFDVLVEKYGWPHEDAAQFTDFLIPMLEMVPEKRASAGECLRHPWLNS

MEK S298 = experiment: PAK-mediated MEK S298 phosphorylation in endothelial cells; type: cell-based, human; details: HUVECs stimulated with bFGF or VEGF, 5 μM
Procedure: FIG. 1A-1F illustrate molecular modeling and assay screening to compounds for dual targeting of PDGFRβ and RAF. (FIG. 1A) Molecular modeling of the amino-triazole based small molecules in PDGFRβ and RAF, respectively. […] A homology model of PDGFRβ was created with a structurally-related family member (VEGFR2, PDB 1y6b). […] To autophosphorylation, immunoblots were carried out with a phospho-tyrosine antibody. Membranes were stripped and reprobed for total PDGFRβ levels. […] (FIG. 1D) Structure activity relationships of the amino-triazole based small molecules comparing both PDGFRβ and B-RAF. […] Curves represent the average of 3 separate experiments, error bars represent ±SEM.
Following stimulation with bFGF, VEGFA or PDGF-BB, cells were washed 1× with ice-cold PBS and lysed in RIPA buffer. For the PDGFRβ autophosphorylation assay in VSMCs, 500 μg of protein from lysates was incubated with 3 μg of anti-PDGFRβ (sc-432, Santa Cruz Biotechnology) for 1 h at 4° C. and subsequently tumbled overnight with protein A/G beads (Pierce) for immunoprecipitation. […] HRP conjugated primary or secondary Abs were detected with SuperSignal ECL (Pierce). […]

SRC = SRC (Homo sapiens (Human), UniProt P12931); experiment: KINOMEscan competitive binding assay; details: 10 uM
Chain of SRC (P12931 whole entry, looked up): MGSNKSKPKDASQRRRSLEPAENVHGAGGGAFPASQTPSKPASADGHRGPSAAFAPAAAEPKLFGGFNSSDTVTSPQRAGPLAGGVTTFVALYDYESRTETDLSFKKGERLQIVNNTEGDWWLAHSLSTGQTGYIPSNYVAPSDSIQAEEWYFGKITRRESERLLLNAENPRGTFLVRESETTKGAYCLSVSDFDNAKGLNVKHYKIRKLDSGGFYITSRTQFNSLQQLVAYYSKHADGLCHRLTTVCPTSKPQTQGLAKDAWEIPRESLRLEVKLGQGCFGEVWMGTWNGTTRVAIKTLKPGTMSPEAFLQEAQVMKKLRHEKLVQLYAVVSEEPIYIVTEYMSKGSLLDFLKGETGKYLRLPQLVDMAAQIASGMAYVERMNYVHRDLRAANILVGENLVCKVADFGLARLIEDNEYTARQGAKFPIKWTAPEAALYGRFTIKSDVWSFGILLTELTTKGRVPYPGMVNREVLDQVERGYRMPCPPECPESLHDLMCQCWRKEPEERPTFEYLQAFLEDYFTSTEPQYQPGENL

CDC2L2 = CDC2L2 (Homo sapiens (Human), UniProt Q9UQ88); experiment: KINOMEscan competitive binding assay; details: 10 uM
Chain of CDC2L2 (Q9UQ88 whole entry): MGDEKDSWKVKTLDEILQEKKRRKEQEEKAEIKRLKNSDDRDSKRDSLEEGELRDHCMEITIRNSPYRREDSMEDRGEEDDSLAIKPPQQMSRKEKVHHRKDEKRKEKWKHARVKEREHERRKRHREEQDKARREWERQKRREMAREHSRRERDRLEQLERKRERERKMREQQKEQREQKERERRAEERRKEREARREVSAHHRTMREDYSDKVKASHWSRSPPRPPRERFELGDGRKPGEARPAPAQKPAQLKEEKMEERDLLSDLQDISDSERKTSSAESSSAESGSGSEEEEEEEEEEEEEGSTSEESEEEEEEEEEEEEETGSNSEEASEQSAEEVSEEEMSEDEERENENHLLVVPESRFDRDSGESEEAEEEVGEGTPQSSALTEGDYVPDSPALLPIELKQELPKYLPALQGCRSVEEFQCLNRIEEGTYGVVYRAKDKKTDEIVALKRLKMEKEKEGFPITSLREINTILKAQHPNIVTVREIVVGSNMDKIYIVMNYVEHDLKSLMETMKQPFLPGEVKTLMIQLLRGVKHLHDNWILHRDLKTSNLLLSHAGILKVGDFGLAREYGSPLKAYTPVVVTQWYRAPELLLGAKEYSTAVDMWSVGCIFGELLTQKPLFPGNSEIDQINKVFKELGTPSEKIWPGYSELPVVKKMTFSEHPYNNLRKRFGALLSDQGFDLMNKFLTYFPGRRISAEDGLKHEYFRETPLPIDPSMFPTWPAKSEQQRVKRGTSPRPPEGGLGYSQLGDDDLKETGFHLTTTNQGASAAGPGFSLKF

PKAC-alpha = PKAC-alpha (Homo sapiens (Human), UniProt P17612); experiment: KINOMEscan competitive binding assay; details: 10 uM

Chain of CDK8 (P49336 whole entry): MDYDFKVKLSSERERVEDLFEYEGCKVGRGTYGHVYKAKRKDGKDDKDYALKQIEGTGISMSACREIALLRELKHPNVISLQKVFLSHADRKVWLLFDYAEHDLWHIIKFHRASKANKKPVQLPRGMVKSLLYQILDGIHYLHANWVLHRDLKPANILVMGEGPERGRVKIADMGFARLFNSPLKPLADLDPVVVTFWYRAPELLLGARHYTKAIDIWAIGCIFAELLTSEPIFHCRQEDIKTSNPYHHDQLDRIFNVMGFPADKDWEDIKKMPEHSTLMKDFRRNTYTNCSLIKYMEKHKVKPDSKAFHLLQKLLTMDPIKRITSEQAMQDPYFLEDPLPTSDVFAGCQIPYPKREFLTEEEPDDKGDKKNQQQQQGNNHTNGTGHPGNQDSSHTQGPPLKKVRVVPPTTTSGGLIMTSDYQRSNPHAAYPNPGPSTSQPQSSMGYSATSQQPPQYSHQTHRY

CSc1nc(N)cc(Oc2ccc(-c3nnc(Nc4cccc(C(F)(F)F)c4)[nH]3)cc2)n1 [Compound 6]
% Control (CDK8): 67%
lymphangiogenesis in lymph nodes [1]: clearly showed inhibition of lymphangiogenesis
average tumor burden (tumor-bearing kidney minus normal kidney weight) (SN12C-RFP renal cells): 49 ± 18 mg
% Control (MYO3A): 94%
% Control (SRPK2): 100%
PAK-mediated phosphorylation on MEK S298 (MEK S298): did not block
% Control (SRC): 90%
% Control (CDC2L2): 83%
% Control (PKAC-alpha): 100%
